Measurements published in US5072032A, “Preparation and use of thiophosphonates and thio-analogues of phosphonoformic acid” (priority 1989, dated 1991).
Read-outs that look alike come from different tables or passages of the source.

Experiments:
[1] = target: T1, EBV DNA polymerase (Epstein-Barr virus, UniProt P03198); test: Viral polymerase inhibition, EBV; assay type: biochemical
T1 construct: made in house
Text: Viral DNA polymerases (HSV-1, HSV-2, EBV) were purified by previously published methods (Derce, D. K. F. Bastow, and Y. C. Cheng (1982) J. Boil. Chem. 257:10251-10260; Ostrander, M., and Y. C. Cheng (1980) Biochim. Biophys. Acta 609:232-245; Tan, R. S., A. Datta. and Y. C. Cheng (1982) J. Virol. 44:893-899). These procedures generally included sequential chromatography on DEAE-cellulose. HIV reverse transcriptase was purified by antibody affinity column chromatography as descrbed (Starnes. M. C. and Y. C. Cheng (1989) J. Biol. Chem. 264:7073-7077). The purified enzymes were dialyzed against and stored in 50 mM Tris-HCl (pH 7.5) containing 1 mM each of DTT, EDTA and PMSF plus 30% glycerol. Mammalian DNA polymerases alpha, beta, gamma, and delta were partially purified from K562 celles (chronic myelogenous leukemia tissue culture line). Briefly, washed cell pellets were extracted and passed throgh DEAE-cellulose in the presence of 300 mM KPO4 (pH 7.5) as previously described (Starnes, M. C., and Y. C. Cheng (1987) J. Biol. Chem 282:988-981) to remove DNA. The column flow-through fractions were dialyzed against buffer which contained 50 mM Tris-HCl (pH 7.5), and fractionated on a single-stranded DNA-cellulose column with a 0-1M KCl gradient.
Standard assays were run at 37° C. and contained: 50 mM Tris, pH b 8.0, 0.5 mM DTT, 8 mM MgCl2, 100 μg/mL BSA, 150 μg/mL gapped calf thymus DNA, 100 μM each dATP, dCTP, dGTP, 10 .parallel.M [^3 H]-dTTP, and 1-5 .parallel.L enzyme in a final volume of 50 .parallel.L. Modified assays for pH dependence inhibition studies with PFA (1) and α--oxo phosphonates (4 and 5) contained 50 mM Hepes, pH 8.2-6.5, 8 mM MgCl2, 100 mM KCl, 100 μg/ml BSA, 0.5 A260 units/ml of poly(rA).(dT)10, 100 μM [^3 H]dTTP, and 1.5 .parallel.L enzyme in a final volume of 50 μL. Samples were processed as described above.

[2] = tested on: HIV-1 (HTLV-IIIB); test: HIV inhibition in cell culture, p24 antigen capture assay in H9 lymphocytes; assay type: cell-based
Method: In addition to testing the activity of TPFA against HIV enzyme, the activity against the virus itself was also determined in accordance with the following protocol. The experimental protocol involved incubatino of H9 lymphocytes (3.5×10^6 cells/ml) in the presence or absence of HIV-1 (HTLV-IIIB) for one hour at 37° C. Cells were washed thoroughly to remove unabsorbed virions and re-suspended at 4×10^5 cells/ml in culture medium. Aliquots (1 ml) were placed in wells of 24 well culture plates containing any equal volume of test compound (diluted in culture medium). After incubation for three days at 37° C., cell density of uninfected cultures was determined to assess toxicity of the test compound. A p24 antigen capture was used to determine the level of HIV infection in HIV treated cultures. The ability of test compounds to inhibit HIV replication was measured at different concentrations relative to infected, untreated cultures. Test compounds were considered to be active if p24 levels were <70% of infected, untreated cultures. Cytotoxicity in uninfect4ed H9 cells was not detected.

[3] = Human immunodeficiency virus 1, IIIB, H9, 72 h, read-out: p24 Ave (%)

T1 sequence (P03198 whole entry): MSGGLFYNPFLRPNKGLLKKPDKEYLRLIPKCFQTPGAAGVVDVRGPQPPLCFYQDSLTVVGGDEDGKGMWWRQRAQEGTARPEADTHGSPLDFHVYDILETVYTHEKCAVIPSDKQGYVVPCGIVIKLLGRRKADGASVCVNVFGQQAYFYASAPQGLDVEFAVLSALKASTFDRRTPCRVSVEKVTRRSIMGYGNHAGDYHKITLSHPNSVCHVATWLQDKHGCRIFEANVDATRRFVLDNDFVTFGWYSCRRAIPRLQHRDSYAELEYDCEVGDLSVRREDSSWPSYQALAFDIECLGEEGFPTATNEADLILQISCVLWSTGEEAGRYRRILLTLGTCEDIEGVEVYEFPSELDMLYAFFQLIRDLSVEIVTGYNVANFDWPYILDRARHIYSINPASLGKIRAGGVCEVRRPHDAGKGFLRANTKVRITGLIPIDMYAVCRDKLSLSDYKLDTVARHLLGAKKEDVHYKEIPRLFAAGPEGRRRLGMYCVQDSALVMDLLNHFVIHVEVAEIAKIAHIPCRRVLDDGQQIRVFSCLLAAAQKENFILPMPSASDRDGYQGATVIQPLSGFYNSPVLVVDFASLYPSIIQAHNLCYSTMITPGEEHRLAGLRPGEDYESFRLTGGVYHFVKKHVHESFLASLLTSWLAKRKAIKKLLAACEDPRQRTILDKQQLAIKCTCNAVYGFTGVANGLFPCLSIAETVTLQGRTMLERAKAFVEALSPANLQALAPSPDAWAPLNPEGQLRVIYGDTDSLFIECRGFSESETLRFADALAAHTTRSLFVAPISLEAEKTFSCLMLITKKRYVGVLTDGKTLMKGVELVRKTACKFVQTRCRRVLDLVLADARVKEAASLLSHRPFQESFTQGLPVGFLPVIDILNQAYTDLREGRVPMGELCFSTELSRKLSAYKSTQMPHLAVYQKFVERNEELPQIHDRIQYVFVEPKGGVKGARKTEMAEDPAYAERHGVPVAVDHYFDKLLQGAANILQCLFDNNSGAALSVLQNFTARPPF

`O=C(O)P(=O)(O)O` [PFA, phosphonoformic acid] gave an IC50 ([1]; EBV, "activated" DNA, read-out: ID50 (the source's name)) of 1 µM, an activity at 1.9 µg/mL ([2]; Human immunodeficiency virus 1, IIIB, H9, 72 h, drug conc. 1.9 μg/mL, % of infected untreated control p24, read-out: p24 Ave (%)) of 88% and an activity at 7.5 µg/mL ([2]; Human immunodeficiency virus 1, IIIB, H9, 72 h, drug conc. 7.5 μg/mL, % of infected untreated control p24, read-out: p24 Ave (%)) of 35%. For the same molecule, the activity at 30 µg/mL ([2]; Human immunodeficiency virus 1, IIIB, H9, 72 h, drug conc. 30 μg/mL, % of infected untreated control p24, read-out: p24 Ave (%)) was 10%, the activity at 120 µg/mL ([2]; Human immunodeficiency virus 1, IIIB, H9, 72 h, drug conc. 120 μg/mL, % of infected untreated control p24, read-out: p24 Ave (%)) was -2% and the “Inhibition Score” value ([2]; drug conc. 7.5 μg/mL) was “** (**25-49% control p24)”. The “Inhibition Score” value ([2]; drug conc. 30 μg/mL) was “*** (***<25% control p24)” and the “Inhibition Score” value ([2]; drug conc. 120 μg/mL) was “*** (***<25% control p24)”.
For `O=C(O)P(O)(O)=S` [TPFA, thiophosphonoformic acid], the IC50 [1] was 70 µM, the “effectiveness of TPFA relative to PFA” value ([1]; EBV enzyme, ratio of ID50 values of Table I) was “more than seventy times less effective” and the activity at 0.1 µg/mL [2, 3] was 139%. The activity at 0.5 µg/mL [2, 3] was 117%, the activity at 2 µg/mL [2, 3] was 90% and the activity at 10 µg/mL [2, 3] was 35%. For the same molecule, the activity at 50 µg/mL [2, 3] was 0%, the activity at 200 µg/mL [2, 3] was -3% and the “Inhibition Score” value ([2]; drug conc. 10 μg/mL) was “** (**25-49% control p24)”. The “Inhibition Score” value ([2]; drug conc. 50 μg/mL) was “*** (***<25% control p24)” and the “Inhibition Score” value ([2]; drug conc. 200 μg/mL) was “*** (***<25% control p24)”.
